Source: ChEMBL document CHEMBL3779839, “Identification of Novel GPR55 Modulators Using Cell-Impedance-Based Label-Free Technology” (J Med Chem, 2016)
The source made the active and inactive calls. The calls are words filed in the database; no cut-off is given here.

Tests used:
Cannabinoid receptor 2 [1] = biological target: T1, Cannabinoid receptor 2 (Homo sapiens, UniProt P34972); experiment: Displacement of [3H]CP55940 from human CB2 receptor expressed in HEK293 EBNA cells after 90 mins by liquid scintillation spectrophotometer; assay type: cell-based
T1 sequence (P34972 whole entry): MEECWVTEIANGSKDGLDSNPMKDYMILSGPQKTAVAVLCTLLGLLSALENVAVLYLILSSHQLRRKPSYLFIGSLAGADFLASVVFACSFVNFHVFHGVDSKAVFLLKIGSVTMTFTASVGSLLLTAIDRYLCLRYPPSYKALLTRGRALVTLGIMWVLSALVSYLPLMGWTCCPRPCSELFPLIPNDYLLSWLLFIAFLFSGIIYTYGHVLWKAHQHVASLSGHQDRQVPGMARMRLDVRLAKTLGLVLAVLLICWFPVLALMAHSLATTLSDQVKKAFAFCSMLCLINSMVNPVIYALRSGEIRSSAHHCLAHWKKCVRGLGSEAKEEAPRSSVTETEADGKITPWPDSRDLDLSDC

Cannabinoid receptor 2 [2] = biological target: T1, Cannabinoid receptor 2; experiment: Displacement of [3H]CP55940 from human CB2 receptor expressed in HEK293 EBNA cells at 40 uM after 90 mins by liquid scintillation spectrophotometer; assay type: cell-based
Cannabinoid receptor 1 = Cannabinoid receptor 1 (Homo sapiens, UniProt P21554); experiment: Displacement of [3H]CP55940 from human CB1 receptor expressed in HEK293 EBNA cells after 90 mins by liquid scintillation spectrophotometer; assay type: cell-based
Cannabinoid receptor 1, sequence (P21554 whole entry): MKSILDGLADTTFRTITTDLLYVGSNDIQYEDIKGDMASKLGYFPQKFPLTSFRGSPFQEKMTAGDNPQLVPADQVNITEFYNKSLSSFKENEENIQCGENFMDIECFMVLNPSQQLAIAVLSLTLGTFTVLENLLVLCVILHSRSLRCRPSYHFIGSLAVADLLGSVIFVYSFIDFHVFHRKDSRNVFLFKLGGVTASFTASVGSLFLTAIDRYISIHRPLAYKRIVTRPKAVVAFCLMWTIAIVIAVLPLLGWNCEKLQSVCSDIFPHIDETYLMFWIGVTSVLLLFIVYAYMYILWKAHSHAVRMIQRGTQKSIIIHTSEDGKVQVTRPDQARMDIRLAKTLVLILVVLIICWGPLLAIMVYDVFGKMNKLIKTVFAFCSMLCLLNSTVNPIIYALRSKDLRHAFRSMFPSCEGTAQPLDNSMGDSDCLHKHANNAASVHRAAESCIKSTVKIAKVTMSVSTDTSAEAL

HEK293 [3] = experiment: Effect on non-transfected HEK293 cells at 1 nM to 10 uM after 5 mins by xCELLigence assay; assay type: functional, cell-based; details: Homo sapiens
[4] = biological target: T2, G-protein coupled receptor 55 (Homo sapiens, UniProt Q9Y2T6); experiment: Partial agonist activity at recombinant human GPR55 expressed in HEK293 cells at 1 uM after 5 mins by xCELLigence assay relative to LPI; assay type: cell-based
T2 sequence (Q9Y2T6 whole entry): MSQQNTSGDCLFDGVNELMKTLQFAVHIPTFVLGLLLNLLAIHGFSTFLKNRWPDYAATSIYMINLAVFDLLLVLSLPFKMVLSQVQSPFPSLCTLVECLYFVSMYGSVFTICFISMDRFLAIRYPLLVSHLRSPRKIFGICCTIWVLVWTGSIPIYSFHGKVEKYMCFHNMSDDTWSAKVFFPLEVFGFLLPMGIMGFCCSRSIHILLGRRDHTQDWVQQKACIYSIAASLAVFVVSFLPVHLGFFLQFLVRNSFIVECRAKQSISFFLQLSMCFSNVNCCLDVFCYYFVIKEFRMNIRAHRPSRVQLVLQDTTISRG

[5] = biological target: T2, G-protein coupled receptor 55; experiment: Antagonist activity at recombinant human GPR55 expressed in HEK293 cells assessed as LPI mediated receptor activation by measuring LPI Emax at 1 uM after 5 mins by xCELLigence assay (reference value: 99 to 104%); assay type: cell-based
[6] = biological target: T2, G-protein coupled receptor 55; experiment: Agonist activity at recombinant human GPR55 expressed in HEK293 cells after 5 mins by xCELLigence assay; assay type: cell-based
[7] = biological target: T2, G-protein coupled receptor 55; experiment: Agonist activity at recombinant human GPR55 expressed in HEK293 cells at 1 uM after 5 mins by xCELLigence assay relative to LPI; assay type: cell-based
[8] = biological target: T2, G-protein coupled receptor 55; experiment: Partial agonist activity at recombinant human GPR55 expressed in HEK293 cells after 5 mins by xCELLigence assay; assay type: cell-based
Cannabinoid receptor 2 [9] = biological target: T1, Cannabinoid receptor 2; experiment: Agonist activity at human CB2 receptor expressed in CHO cells after 30 mins by [35S]-GTPgammaS binding assay relative to control
HEK293 [10] = experiment: Effect on non-transfected HEK293 cells at 10 uM after 5 mins by xCELLigence assay; assay type: functional, cell-based; details: Homo sapiens

Row | SMILES | Ki (Cannabinoid receptor 2 [1]) | inhibition (Cannabinoid receptor 2 [2]) | Ki (Cannabinoid receptor 1) | Activity (HEK293 [3]) | Emax [4] | Emax [5] | Activity [6] | Emax [7] | EC50 [8] | EC50 (Cannabinoid receptor 2 [9]) | Activity (HEK293 [10]) | EC50 [6]
1 | COc1ccc2c(c1)OC(C)(C)c1cn(CCN3CCN(C(=O)C4CCCCC4)CC3)nc1-2 | 0.523 µM | 70% | > 40 µM | inactive | 47% | 99% |  |  |  |  |  | 
2 | COc1ccc2c(c1)OC(C)(C)c1cn(CCN3CCN(C(=O)COc4ccccc4)CC3)nc1-2 | > 40 µM |  | > 40 µM | inactive | 52% | 100% |  |  |  |  |  | 
3 | COc1ccc2c(c1)OC(C)(C)c1cn(CNC(=O)CN3CCN(c4ccccc4)CC3)nc1-2 | 1.58 µM | 70% | > 40 µM | inactive |  | 94% | inactive | < 25% |  |  |  | 
4 | COc1ccc2c(c1)OC(C)(C)c1cnn(CNC(=O)CN3CCN(c4cccc(C)c4C)CC3)c1-2 | > 40 µM |  | > 40 µM |  |  |  | inactive |  |  |  |  | 
5 | COc1ccc(N2CCN(CC(=O)NCn3ncc4c3-c3ccc(OC)cc3OC4(C)C)CC2)cc1 | > 40 µM |  | > 40 µM | inactive |  | 80% | inactive | < 25% |  |  |  | 
6 | COc1ccc2c(c1)OC(C)(C)c1cnn(CNC(=O)CN3CCN(c4ccccc4)CC3)c1-2 | 4.92 µM | 70% | > 40 µM | inactive |  | 97% | inactive | < 25% |  |  |  | 
7 | COc1ccc2c(c1)OC(C)(C)c1cnn(CNC(=O)CN3CCN(c4ccccc4OC)CC3)c1-2 | > 40 µM |  | > 40 µM |  |  |  | inactive |  |  |  |  | 
8 | COc1ccc2c(c1)OC(C)(C)c1cn(CNC(=O)CN3CCN(c4cccc(C)c4C)CC3)nc1-2 | > 40 µM |  | > 40 µM | inactive |  | 102% | inactive | < 25% |  |  |  | 
9 | COc1ccc2c(c1)OC(C)(C)c1cn(CCN3CCN(C(=O)c4ccco4)CC3)nc1-2 | 0.698 µM | 70% | > 40 µM | inactive | 43% | 106% |  |  |  |  |  | 
10 | COc1ccc2c(c1)OC(C)(C)c1cn(CCN3CCN(C(=O)C(C)(C)C)CC3)nc1-2 | 6.39 µM | 70% | > 40 µM | inactive | 49% | 100% |  |  |  |  |  | 
11 | COc1ccc2c(c1)OC(C)(C)c1cn(CNC(=O)CN3CCN(c4ccccc4OC)CC3)nc1-2 | > 40 µM |  | > 40 µM | inactive | 51% | 90% |  |  | 0.00636 µM |  |  | 
12 | COc1ccc2c(c1)OC(C)(C)c1cn(CCN3CCN(C(=O)c4ccccc4)CC3)nc1-2 | 3.6 µM | 70% | > 40 µM | inactive | 51% | 105% |  |  | 0.0006 µM |  |  | 
13 | COc1ccc2c(c1)OC(C)(C)c1cnn(CCN3CCN(C(=O)c4cccs4)CC3)c1-2 |  |  | > 40 µM | inactive |  | 99% |  | < 25% |  |  |  | 
14 | COc1ccc2c(c1)OC(C)(C)c1cnn(CCN3CCN(C(=O)c4ccccc4)CC3)c1-2 |  |  | > 40 µM |  |  |  |  |  |  |  |  | 
15 | COc1ccc2c(c1)OC(C)(C)c1cn(CCN3CCN(C(=O)C4CCCO4)CC3)nc1-2 (stereo not drawn) | 1.07 µM | 70% | > 40 µM | inactive | 51% | 102% |  |  | 0.0004 µM |  |  | 
16 | COc1ccc2c(c1)OC(C)(C)c1cn(CCN3CCN(C(=O)c4cccs4)CC3)nc1-2 | 0.0154 µM | 70% | > 40 µM | inactive | 45% | 96% |  |  |  | 0.392 µM |  | 
17 | CCCCCCCCCCCCCCCCCC(=O)OC[C@@H](O)COP(=O)(O)O[C@@H]1[C@H](O)[C@H](O)[C@@H](O)[C@H](O)[C@H]1O |  |  |  |  |  |  |  |  |  |  | Active | 0.00282 µM
18 | COc1ccc2c(c1)OC(C)(C)c1cnn(CCN3CCN(C(=O)c4ccco4)CC3)c1-2 |  |  | > 40 µM | inactive |  | 97% |  | < 25% |  |  |  | 
